Results published in PMC8619068, “Transformation of Tetracycline by Manganese Peroxidase from Phanerochaete chrysosporium” (Molecules, 2021).

Tested on: T1, manganese peroxidase (MnP)
T1 construct: gene MNP1; native secreted enzyme purified from culture fluid (ultrafiltration, DEAE, Sephadex G-75); single band on SDS-PAGE
Test: HPLC-UV ([…] nm) of residual tetracycline; non-linear Michaelis-Menten fit
Format: biochemical, Phanerodontia chrysosporium
Settings: MnSO4 0.1 mmol/L, H2O2 0.2 mmol/L, MnP 40 U/L, tartrate buffer 0.05 mol/L pH 4.5, 37 °C (general removal assay); oxidation mediated by Mn3+

Structure (SMILES): CN(C)[C@@H]1C(=O)C(C(N)=O)=C(O)[C@@]2(O)C(=O)C3=C(O)c4c(O)cccc4[C@@](C)(O)[C@H]3C[C@@H]12 [TC, tetracycline]
- Km: 238.23 mg/L
